Assay results published in patent US20070276020A1, “Dicationic Compounds For Activity Against Trichomonas Vaginalis” (priority 2004, published 2007).
Counter-ions that a name gives are not always drawn. Like-named read-outs stand apart in the source and are kept apart here.

Experiments:
[1] = tested on: T. vaginalis CDC reference strain 520 (metronidazole-sensitive); assay: IC50 assay, tritiated thymidine incorporation, 48 h, metronidazole-sensitive strain 520; type: cell-based, Trichomonas vaginalis; settings: for IC50: Trichomonas vaginalis
Procedure: (§1) CDC reference strains 085 and 520 that are metronidazole resistant and sensitive, respectively, were maintained at 37° C. in Diamond's trypticase-yeast-maltose medium (TYM; pH 6.0). Metronidazole, tinidazole, pentamidine, and berenil were purchased from Sigma Chemical Co. (St. Louis, Mo., United States of America). Compound 1, see Das, B. P. and D. W. Boykin, J. Med. Chem., 20, 531-536 (1977); Compound 2, see Boykin, D. W., et al., Bioorganic and Med. Chem. Lett., 6:3017-3020 (1996); Compound 3 and Compound 4, see Boykin, D. W., et al., J. Med. Chem., 41, 124-129 (1998); Compound 6, see Francesconi, I., et al., J. Med. Chem., 42, 2260-2265 (1999); Compound 5, see Stephens, C., et al., J. Med. Chem., 44, 1741-1748 (2001); and Compound 9, see Mallena, S. et al., J. Am. Chem. Soc., 126, 13659-13669 (2004); were synthesized as previously reported. Purity was determined by NMR and TLC. The syntheses of 7 and 8 are outlined below. See also Crowell, A. L., et al., Antimicrob. Agents Chemother., 48, 3602-3605 (2004), which is incorporated herein by reference in its entirety.
(§2) Compounds were dissolved in dimethyl sulfoxide (DMSO, Sigma) and further diluted with Diamond's TYM media to reach assay concentrations. Two types of assays were performed on the cationic compounds being evaluated. An initial screen was performed using the standard MLC assay, see Crowell, A. L., et al., Antimicrob. Agents Chemother., 47, 1407-1409 (2003); Meingassner, J. G. and J. Thurner, Antimicrob. Agents Chemother., 15, 254-257 (1979), with a maximum concentration of 20 μM for the test compounds. After 48 h of incubation at 37° C., plates were examined using an inverted phase-contrast microscope. The lowest drug concentration at which no motile trichomonads were observed was recorded as the MLC. Each compound was tested at least twice under both aerobic and anaerobic conditions. Anaerobic conditions were generated using a GASPAK™ jar and CO2-generating GASPAK™ Plus anaerobic system envelopes (Becton Dickinson, Sparks, Md., United States of America) and monitored with GASPAK™ disposable anaerobic indicator strips (Becton Dickinson). […] To further evaluate the compounds' activity, a second type of assay was used to determine the concentration at which 50% of the parasite growth was inhibited (IC50). In these assays, 0.5 μCi of tritiated thymidine (Perkin-Elmer, Boston, Mass., United States of America) was added to each well of a standard assay at the initiation of culture. At 48 h of incubation under either aerobic or anaerobic conditions, cells were harvested onto glass fiber filters (Wallac, Turku, Finland) using a TOMTEC™ cell harvester (Hamden, Conn., United States of America). Incorporated thymidine was detected using BETAPLATE™ (Wallac) scintillation fluid and plate reader. The resulting counts per minute over the compound's concentration range were utilized to calculate IC50s using GRAPHPAD™ PRISM™ (GraphPad Software, Inc., San Diego, Calif., United States of America).

T. vaginalis = assay: In vitro assays against T. vaginalis, overall statement in words; type: cell-based, Trichomonas vaginalis
Procedure: as §2

[2] = tested on: T. vaginalis CDC reference strain 085 (metronidazole-resistant); assay: IC50 assay, tritiated thymidine incorporation, 48 h, metronidazole-resistant strain 085; type: cell-based, Trichomonas vaginalis
Procedure: as §1, §2

[3] = tested on: different protozoal infection; settings: experimental model; cited from earlier work
[4] = tested on: trichomoniasis infections; settings: cited from earlier work
[5] = metronidazole-sensitive strain 520, aerobic, 48 h
[6] = metronidazole-sensitive strain 520, anaerobic, 48 h
[7] = Trichomonas vaginalis, 48 h, read-out: IC50 values (μM ± SEM) 085 aerobic
[8] = metronidazole-resistant strain 085, anaerobic, 48 h
[9] = 48 h, read-out: IC50 values (μM ± SEM) 520 aerobic
[10] = 48 h, read-out: IC50 values (μM ± SEM) 520 anaerobic
[11] = Trichomonas vaginalis, 48 h, read-out: IC50 values (μM ± SEM) 085 anaerobic
[12] = metronidazole-resistant strain 085, aerobic, 48 h
[13] = metronidazole-sensitive strain 520, aerobic, 48 h, read-out: IC50 values (μM ± SEM) 520 aerobic
[14] = metronidazole-sensitive strain 520, anaerobic, 48 h, read-out: IC50 values (μM ± SEM) 520 anaerobic
[15] = Trichomonas vaginalis, metronidazole-resistant strain 085, aerobic, 48 h, read-out: IC50 values (μM ± SEM) 085 aerobic
[16] = Trichomonas vaginalis, metronidazole-resistant strain 085, anaerobic, 48 h, read-out: IC50 values (μM ± SEM) 085 anaerobic

IC50 values (μM ± SEM) 520 aerobic [1, 5]	IC50 values (μM ± SEM) 520 anaerobic [1, 6]	IC50 [2, 7] [µM]	IC50 values (μM ± SEM) 085 anaerobic [2, 8]	IC50 [1, 9] [µM]	IC50 [1, 10] [µM]	IC50 [2, 11] [µM]	Compound	effectiveness against T. vaginalis in vitro (T. vaginalis)	also measured
		0.27 ± 0.04		0.98 ± 0.19	1.24 ± 0.39	0.5 ± 0.42	N=C(N)c1ccc(-c2ccc(-c3nc4ccc(C(=N)N)cc4[nH]3)s2)cc1 [Compound 9, 2-(4-Amidinophenyl)-5-[2-(5-amidinobenzimidazoyl)]thiophene]	most effective dication	in vivo treatment of a different protozoal infection [3]: successfully used; toxicity to the host [3]: without overt evidence of toxicity; IC50 ([1]; read-out: IC50 values): ≤ 1 µM; IC50 ([2]; Trichomonas vaginalis, read-out: IC50 values): ≤ 1 µM
		7.27 ± 3.76		44.7 ± 9.33	143 ± 127	37.6 ± 43.9	CC(C)NC(=N)c1ccc2nc(-c3ccc4oc(-c5nc6ccc(C(=N)NC(C)C)cc6[nH]5)cc4c3)[nH]c2c1 [Compound 8, 2,5-Bis{2-[5-(N-isopropylamidino)benzimidazoyl]}benzo[b]furan tetrahydrochloride]	effective anti-trichomonads	
no effect	no effect		no effect				N=C(N)c1ccc(OCCCCCOc2ccc(C(=N)N)cc2)cc1 [Pentamidine, reference compound]	not effective	IC50 values (μM ± SEM) 085 aerobic [2, 12]: no effect
no effect	no effect		no effect				N=C(N)c1ccc(-c2coc(-c3ccc(C(=N)N)cc3)c2)cc1 [Compound 6, 3,5-Bis(4-amidophenyl)furan]	not effective	IC50 values (μM ± SEM) 085 aerobic [2, 12]: no effect

Continued, compound first:

Compound	IC50 values (μM ± SEM) 520 aerobic [1, 5]	IC50 values (μM ± SEM) 520 anaerobic [1, 6]	IC50 [2, 7] [µM]	IC50 values (μM ± SEM) 085 anaerobic [2, 8]	IC50 [1, 9] [µM]	IC50 [1, 10] [µM]	IC50 [2, 11] [µM]	effectiveness against T. vaginalis in vitro (T. vaginalis)	also measured
CC(C)NC(=N)c1ccc2nc(-c3ccc4oc(-c5nc6ccc(C(=N)NC(C)C)cc6[nH]5)cc4c3)[nH]c2c1 (as salt: hydrochloride) [Compound 8, 2,5-Bis{2-[5-(N-isopropylamidino)benzimidazoyl]}benzo[b]furan tetrahydrochloride]									melting point: 285 to 290 °C
CONC(=N)c1ccc(-c2ccc(-c3ccc(C(=N)NOC)cc3)o2)cc1 [Compound 2, 2,5-Bis[4-(O-methyloxyamidino)phenyl]furan]	no effect	no effect	39.1 ± 25.1	no effect				generally ineffective	
CC(=O)NCC(=O)O.CC(=O)NCC(=O)O.N=C(N)c1ccc(N=NNc2ccc(C(=N)N)cc2)cc1 [Berenil, reference compound]	no effect	no effect		no effect				not effective	IC50 values (μM ± SEM) 085 aerobic [2, 12]: no effect
4,4′-Bis{2-[(4-amidino)benzimidazolyl]}biphenyl tetrahydrochloride [Compound 7]	no effect	no effect						effective anti-trichomonads	activity against metronidazole-sensitive 520 isolate [1]: not; activity against metronidazole-resistant 085 strain [2]: has activity; IC50 ([2]; metronidazole-resistant strain 085, aerobic, 48 h, read-out: IC50 values (μM ± SEM) 085 aerobic): 7.79 ± 4.2 µM; IC50 ([2]; metronidazole-resistant strain 085, anaerobic, 48 h, read-out: IC50 values (μM ± SEM) 085 anaerobic): 25.3 ± 43.1 µM
N=C(N)Nc1ccc(-c2ccc(-c3ccc(NC(=N)N)cc3)o2)cc1 [Compound 5, 2,5-Bis-(4-guanidinophenyl)furan]	no effect	no effect		no effect				not effective	IC50 values (μM ± SEM) 085 aerobic [2, 12]: no effect
N=C(N)c1ccc(-c2ccc(-c3ccc(C(=N)N)cc3)o2)cc1 [Compound 1, 2,5-Bis(4-amidinophenyl)furan]			8.12 ± 2.45		18.6 ± 6.43	57.9 ± 19.6	18.6 ± 19.8		activity against metronidazole-sensitive 520 isolate [1]: good activity; effectiveness versus metronidazole and tinidazole against resistant strain 085 ([2]; aerobic conditions): clearly more effective
CC(C)NC(=N)c1ccc(-c2ccc(-c3ccc(C(=N)NC(C)C)cc3)o2)cc1 [Compound 3, 2,5-Bis[4-(N-isopropylamidino)phenyl]furan]			6.44 ± 3.89		6.6 ± 1.76	3.91 ± 1.06	9.41 ± 7.92		
Cc1ncc([N+](=O)[O-])n1CCO [Metronidazole, reference compound]									infections successfully treated [4]: 90-95%; IC50 [1, 13]: 18.2 ± 4.25 µM; IC50 [1, 14]: 1.89 ± 0.77 µM; IC50 [2, 15]: 303 ± 22.2 µM; IC50 [2, 16]: 12.3 ± 23.8 µM
N=C(NC1CCCCC1)c1ccc(-c2ccc(-c3ccc(C(=N)NC4CCCCC4)cc3)o2)cc1 [Compound 4, 2,5-Bis[4-(N-cyclohexylamidino)phenyl]-furan]			22.4 ± 13.7		15.9 ± 0.74	13.9 ± 3.74	10.2 ± 8.47		
CCS(=O)(=O)CCn1c([N+](=O)[O-])cnc1C [Tinidazole, reference compound]									IC50 [1, 13]: 1.48 ± 0.12 µM; IC50 [1, 14]: 0.004 µM; IC50 [2, 15]: 45.1 ± 5.38 µM; IC50 [2, 16]: 4.81 ± 1.17 µM
